Assay results reported in article PMC10590383, “Repurposing conformational changes in ANL superfamily enzymes to rapidly generate biosensors for organic and amino acids” (Nature Communications, 2023).

Key:
Assay type in all cases: biochemical
GECFINDER-Phe3.2 = target: T1, GECFINDER-Phe3.2 (Aneurinibacillus migulanus, UniProt P0C061, A301E/F234I); experiment: Fluorescence dose-response of purified affinity-lowered […]-Phe3 mutants with phenylalanine, 100 mM Tris pH 7.5, room temperature, 1 mM ATP, 2.5 mM MgCl2.
T1 construct: gene grsA
Source text: (§1) Generally, industrial amino acid-producing strains produce phenylalanine at the grams per liter level, which greatly exceeds the dynamic range of […]-Phe3. Thus, we had to re-engineer the affinity of […]-Phe3 without affecting its ligand specificity, for phenylalanine to enable the screening of industrial phenylalanine-producing strains First, we performed virtual alanine scanning on the amino acid residues near the substrate pocket of […]-Phe3 using Discovery Studio 2019. […] Subsequently, we performed virtual saturation mutations on the F234 site (Supplementary Fig. 8b) and selected F234I, which has a medium mutation energy value ranking, for experimental verification. […] To further reduce the affinity of the F234I mutant ([…]-Phe3.1) for phenylalanine, a site-saturation library of A301 based on […]-Phe3.1 was created and screened. […] The substrate specificity and thermal stability of […]-Phe3.2 were evaluated.
(§2) Fig. 5 […] applies for FADS sorting. a Dose–response curves of purified […]-Phe3, 3.1 and 3.2 with increasing concentrations of phenylalanine. b Phenylalanine biosynthesis pathway in C. glutamicum. Dotted and dashed lines represented feedback inhibition and repression, respectively. Two target genes were highlighted in red. […] RBS strength was determined using a GFP reporter system. Scale bar represented GFP fluorescence normalized with OD600 nm. […]

GECFINDER-Phe3.1 = target: T2, GECFINDER-Phe3.1 (Aneurinibacillus migulanus, UniProt P0C061, F234I); experiment: as above
T2 construct: gene grsA
Source text: as §1, §2

GECFINDER-Leu3 = target: T3, GECFINDER-Leu3 (Aneurinibacillus migulanus, UniProt P0C061, A301G/S447N/T278L); experiment: Fluorescence dose-response of purified binding-pocket-engineered sensors (0.75 uM) in 100 mM Tris-HCl pH 7.5, room temperature, 1 mM ATP, 2.5 mM MgCl2, excitation 460 or 480 nm, emission 510 nm; logistic five-parameter fit.; conditions: n = 3
T3 construct: gene grsA
Procedure: (§3) Fig. 4 Engineering ligand specificity of GrsA-PheA for generating […]s. a The selectivity-conferring code of Phe and Leu A domains. b–f Dose–response curve of purified […]s with increasing concentrations of ligands in 100 mM Tris-HCl buffer (pH=7.5). All data shown are means ± S.D. (n = 3 biologically independent samples). g A series of […] reactions was tested to show the […]’s specificity with 20 proteinogenic amino acids. The values on the heatmap represent the ΔF/F0 value normalized to each […]’s maximal ΔF/F0 value ((ΔF/F0)/maximal ΔF/F0). The concentrations of 20 amino acids were 100 μM. The color indicates the average value of three independent biological replicates after 15 min. All data shown are means ± S.D. (n = 3 biologically independent samples). Source data are provided as a Source data file.
(§4) The study conducted dose–response curve, substrate specificity, and fluorescent spectrum analyses in 100-mM Tris buffer (pH = 7.5), while pH stability experiments were performed in 100-mM Tris buffer at three different pH values (6.5, 7.5, and 8.5) at room temperature. […] protein at a concentration of 0.75 μM, various small molecule concentrations, 1 mM ATP, and 2.5 mM MgCl2 were used in the experiments. Fluorescent signals were detected using a Microplate Reader (Synergy H4, Bio Tek) at an excitation/emission wavelength of 460 nm/510 nm or 480 nm/510 nm. The dose-response curve was determined immediately after the addition of the analyte. The total duration of the measurement was 15 min, with readings taken at one-minute intervals. The dose-response curve was plotted using the fluorescence values obtained after achieving stability in the fluorescence signal. The dose-response curves were fitted using the logistic model LOGISTIC5 available in Origin 2021, which could provide a more adequate fit to asymmetric dose-response data[62],[63]. Excitation spectra were scanned from 300 to 540 nm with a step size of 5 nm, and the emission wavelength was set to 560 nm. Emission spectra were scanned from 470 to 700 nm with a step size of 5 nm, and the excitation wavelength was set to 450 nm. The thermal stability of […] was analyzed using the UNcle multifunctional protein stability analysis system. Measurements were performed in 20 mM MOPS buffer with 2 mM DTT at a sample concentration of 1 mg/mL. Absolute fluorescence quantum yields were measured using an absolute photoluminescence quantum yield spectrometer (FS5, Edinburgh).

GECFINDER-Leu2 = target: T4, GECFINDER-Leu2 (Aneurinibacillus migulanus, UniProt P0C061, A301G/I277L/T278L); experiment: as above; conditions: n = 3
T4 construct: gene grsA
Procedure: as §3, §4

GECFINDER-Leu4 = target: T5, GECFINDER-Leu4 (Aneurinibacillus migulanus, UniProt P0C061, A301G/I277L/S447N/T278L); experiment: as above; conditions: n = 3
T5 construct: gene grsA
Procedure: as §3, §4

GECFINDER-SβF = experiment: as above; conditions: n = 3
Procedure: as §3, §4

**Q.** How did the EC50 (GECFINDER-Phe3.2) turn out when N[C@@H](Cc1ccccc1)C(=O)O [Phe, phenylalanine] was run?
**A.** 67.6 µM

**Q.** And the EC50 (GECFINDER-Phe3.1)?
**A.** 7.51 µM

**Q.** And the EC50 (GECFINDER-Leu3)?
**A.** 392 ± 51.8 µM

**Q.** What about the EC50 (GECFINDER-Leu2) of the same compound?
**A.** 606 ± 407 µM

**Q.** And the EC50 (GECFINDER-Leu4)?
**A.** 158 ± 22.6 µM

**Q.** And the EC50 (GECFINDER-SβF)?
**A.** 234 ± 23.7 µM
